Test results published in the supplement of paper PMC10307832.

Tests used:
Test in all cases: relative viability (nuclei count vs DMSO), 5 days (fraction); higher = more cells survive
[1] = system: LCLC-97TM1
How it was run: (§1)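 Dosing by pin tool came one day after lung cancer cell lines were seeded in 1536-well plates, using either one drug or a fixed anchor-drug dose plus five library-drug doses (not always all listed) in √10 steps. After 5 days, nuclei were counted on 4× images. Relative viability is treated-well nuclei count divided by vehicle-well nuclei count, and values are medians of duplicate plates.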

[2] = system: NCI-H1355
How it was run: as §1

[3] = system: NCI-H1623
How it was run: as §1

[4] = system: NCI-H1648
How it was run: as §1

[5] = system: NCI-H1993
How it was run: as §1

[6] = system: NCI-H23
How it was run: as §1

[7] = system: NCI-H322M
How it was run: as §1

[8] = system: NCI-H596
How it was run: as §1

[9] = system: UMC-11
How it was run: as §1

`O=c1cc(-c2cccc3c2Sc2ccccc2S3)oc(N2CCOCC2)c1` + Cc1cc(Nc2cc(N3CCN(C)CC3)nc(Sc3ccc(NC(=O)C4CC4)cc3)n2)n[nH]1 [Tozasertib] (partner 0.1 µM) was tested, and the relative viability ([1]; first compound 0.08 µM) was 0.223, the relative viability ([1]; first compound 0.253 µM) was 0.22 and the relative viability ([1]; first compound 0.8 µM) was 0.205. For the same compound, the relative viability ([1]; first compound 2.53 µM) was 0.228, the relative viability ([1]; first compound 8 µM) was 0.207 and the relative viability ([2]; first compound 0.08 µM) was 0.521. The relative viability ([2]; first compound 0.253 µM) was 0.511, the relative viability ([2]; first compound 0.8 µM) was 0.483 and the relative viability ([2]; first compound 2.53 µM) was 0.52. For the same compound, the relative viability ([2]; first compound 8 µM) was 0.346, the relative viability ([3]; first compound 0.08 µM) was 0.445 and the relative viability ([3]; first compound 0.253 µM) was 0.414. For the same compound, the relative viability ([3]; first compound 0.8 µM) was 0.393, the relative viability ([3]; first compound 2.53 µM) was 0.4 and the relative viability ([3]; first compound 8 µM) was 0.43. The relative viability ([4]; first compound 0.08 µM) was 0.492, the relative viability ([4]; first compound 0.253 µM) was 0.386 and the relative viability ([4]; first compound 0.8 µM) was 0.426. For the same compound, the relative viability ([4]; first compound 2.53 µM) was 0.411, the relative viability ([4]; first compound 8 µM) was 0.399 and the relative viability ([5]; first compound 0.08 µM) was 0.518. The relative viability ([5]; first compound 0.253 µM) was 0.55, the relative viability ([5]; first compound 0.8 µM) was 0.516 and the relative viability ([5]; first compound 2.53 µM) was 0.559. The relative viability ([5]; first compound 8 µM) was 0.621, the relative viability ([6]; first compound 0.08 µM) was 0.629 and the relative viability ([6]; first compound 0.253 µM) was 0.341. The relative viability ([6]; first compound 0.8 µM) was 0.357, the relative viability ([6]; first compound 2.53 µM) was 0.296 and the relative viability ([6]; first compound 8 µM) was 0.283. It also gave a relative viability ([7]; first compound 0.08 µM) of 0.494, a relative viability ([7]; first compound 0.253 µM) of 0.446 and a relative viability ([7]; first compound 0.8 µM) of 0.464. The relative viability ([7]; first compound 2.53 µM) was 0.449, the relative viability ([7]; first compound 8 µM) was 0.467 and the relative viability ([8]; first compound 0.08 µM) was 0.758. The relative viability ([8]; first compound 0.253 µM) was 0.892, the relative viability ([8]; first compound 0.8 µM) was 1.08 and the relative viability ([8]; first compound 2.53 µM) was 0.762. For the same compound, the relative viability ([8]; first compound 8 µM) was 0.997, the relative viability ([9]; first compound 0.08 µM) was 0.198 and the relative viability ([9]; first compound 0.253 µM) was 0.19. The relative viability ([9]; first compound 0.8 µM) was 0.189, the relative viability ([9]; first compound 2.53 µM) was 0.202 and the relative viability ([9]; first compound 8 µM) was 0.234.
`CCN(CC)CCCCNc1ncc2cc(-c3cc(OC)cc(OC)c3)c(NC(=O)NC(C)(C)C)nc2n1` + Cc1cc(Nc2cc(N3CCN(C)CC3)nc(Sc3ccc(NC(=O)C4CC4)cc3)n2)n[nH]1 [Tozasertib] (partner 0.1 µM) was tested, and the relative viability ([1]; first compound 0.01 µM) was 0.236, the relative viability ([1]; first compound 0.03162 µM) was 0.268 and the relative viability ([1]; first compound 0.1 µM) was 0.255. It also gave a relative viability ([1]; first compound 0.3162 µM) of 0.34, a relative viability ([1]; first compound 1 µM) of 0.236 and a relative viability ([2]; first compound 0.01 µM) of 0.547. The relative viability ([2]; first compound 0.03162 µM) was 0.559, the relative viability ([2]; first compound 0.1 µM) was 0.52 and the relative viability ([2]; first compound 0.3162 µM) was 0.531. The relative viability ([2]; first compound 1 µM) was 0.411, the relative viability ([3]; first compound 0.01 µM) was 0.67 and the relative viability ([3]; first compound 0.03162 µM) was 0.454. It also gave a relative viability ([3]; first compound 0.1 µM) of 0.43, a relative viability ([3]; first compound 0.3162 µM) of 0.513 and a relative viability ([3]; first compound 1 µM) of 0.416. The relative viability ([4]; first compound 0.01 µM) was 0.657, the relative viability ([4]; first compound 0.03162 µM) was 0.559 and the relative viability ([4]; first compound 0.1 µM) was 0.406. It also gave a relative viability ([4]; first compound 0.3162 µM) of 0.4, a relative viability ([4]; first compound 1 µM) of 0.407 and a relative viability ([5]; first compound 0.01 µM) of 0.621. For the same compound, the relative viability ([5]; first compound 0.03162 µM) was 0.608, the relative viability ([5]; first compound 0.1 µM) was 0.604 and the relative viability ([5]; first compound 0.3162 µM) was 0.64. For the same compound, the relative viability ([5]; first compound 1 µM) was 0.566, the relative viability ([6]; first compound 0.01 µM) was 0.408 and the relative viability ([6]; first compound 0.03162 µM) was 0.405. For the same compound, the relative viability ([6]; first compound 0.1 µM) was 0.352, the relative viability ([6]; first compound 0.3162 µM) was 0.301 and the relative viability ([6]; first compound 1 µM) was 0.339. It also gave a relative viability ([7]; first compound 0.01 µM) of 0.717, a relative viability ([7]; first compound 0.03162 µM) of 0.49 and a relative viability ([7]; first compound 0.1 µM) of 0.589. The relative viability ([7]; first compound 0.3162 µM) was 0.57, the relative viability ([7]; first compound 1 µM) was 0.448 and the relative viability ([8]; first compound 0.01 µM) was 0.911. For the same compound, the relative viability ([8]; first compound 0.03162 µM) was 0.903, the relative viability ([8]; first compound 0.1 µM) was 1.05 and the relative viability ([8]; first compound 0.3162 µM) was 0.828. The relative viability ([8]; first compound 1 µM) was 0.747, the relative viability ([9]; first compound 0.01 µM) was 0.214 and the relative viability ([9]; first compound 0.03162 µM) was 0.203. It also gave a relative viability ([9]; first compound 0.1 µM) of 0.204, a relative viability ([9]; first compound 0.3162 µM) of 0.195 and a relative viability ([9]; first compound 1 µM) of 0.196.
